Test results reported in patent publication US7998965B2, “Glutamate aggrecanase inhibitors” (Wyeth LLC, priority 2005, dated 2011).
≈ marks a conversion by molar mass, not a printed value.

Key:
MMP-1 = biological target: T1, MMP-1 (Homo sapiens, UniProt P03956); assay: MMP-1 of Table 1; type: biochemical; settings: unit inferred
T1 sequence (P03956 100-469): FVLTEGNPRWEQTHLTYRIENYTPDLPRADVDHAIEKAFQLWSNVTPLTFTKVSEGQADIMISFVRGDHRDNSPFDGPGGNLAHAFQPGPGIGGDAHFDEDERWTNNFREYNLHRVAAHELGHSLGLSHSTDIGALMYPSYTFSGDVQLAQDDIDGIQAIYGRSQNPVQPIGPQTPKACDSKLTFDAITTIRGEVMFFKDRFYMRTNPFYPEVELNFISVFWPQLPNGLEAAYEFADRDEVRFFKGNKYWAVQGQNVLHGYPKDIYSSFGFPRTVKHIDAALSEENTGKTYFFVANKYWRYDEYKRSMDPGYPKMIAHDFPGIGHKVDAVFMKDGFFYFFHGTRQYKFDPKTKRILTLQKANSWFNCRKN

[1] = biological target: T2, purified recombinant human Aggrecanase-2 (Ag2t-Phe628-Strep) (Homo sapiens, UniProt Q9UNA0); assay: In vitro fluorescence screen for Aggrecanase-2 inhibitors; type: biochemical; settings: Table 1; read-out: Agg 2 IC50
T2 construct: the form used is denoted as Ag2t-Phe628-Strep (MW=41,737)
T2 sequence (Q9UNA0 262-628): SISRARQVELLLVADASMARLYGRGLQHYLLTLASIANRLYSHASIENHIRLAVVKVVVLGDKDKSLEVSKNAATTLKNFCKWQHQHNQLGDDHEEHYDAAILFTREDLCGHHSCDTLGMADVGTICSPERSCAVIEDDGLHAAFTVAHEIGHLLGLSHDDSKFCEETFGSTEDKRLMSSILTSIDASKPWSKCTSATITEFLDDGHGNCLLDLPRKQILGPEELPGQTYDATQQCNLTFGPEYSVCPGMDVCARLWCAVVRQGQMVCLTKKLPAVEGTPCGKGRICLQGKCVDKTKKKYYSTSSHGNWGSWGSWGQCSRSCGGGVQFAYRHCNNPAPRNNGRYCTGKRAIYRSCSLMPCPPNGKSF

[2] = biological target: T3, purified recombinant human Aggrecanase-1 (rAgg1) (Homo sapiens, UniProt O75173); assay: In vitro fluorescence screen for Aggrecanase-1 inhibitors; type: biochemical; settings: Table 1
T3 sequence (O75173 213-837): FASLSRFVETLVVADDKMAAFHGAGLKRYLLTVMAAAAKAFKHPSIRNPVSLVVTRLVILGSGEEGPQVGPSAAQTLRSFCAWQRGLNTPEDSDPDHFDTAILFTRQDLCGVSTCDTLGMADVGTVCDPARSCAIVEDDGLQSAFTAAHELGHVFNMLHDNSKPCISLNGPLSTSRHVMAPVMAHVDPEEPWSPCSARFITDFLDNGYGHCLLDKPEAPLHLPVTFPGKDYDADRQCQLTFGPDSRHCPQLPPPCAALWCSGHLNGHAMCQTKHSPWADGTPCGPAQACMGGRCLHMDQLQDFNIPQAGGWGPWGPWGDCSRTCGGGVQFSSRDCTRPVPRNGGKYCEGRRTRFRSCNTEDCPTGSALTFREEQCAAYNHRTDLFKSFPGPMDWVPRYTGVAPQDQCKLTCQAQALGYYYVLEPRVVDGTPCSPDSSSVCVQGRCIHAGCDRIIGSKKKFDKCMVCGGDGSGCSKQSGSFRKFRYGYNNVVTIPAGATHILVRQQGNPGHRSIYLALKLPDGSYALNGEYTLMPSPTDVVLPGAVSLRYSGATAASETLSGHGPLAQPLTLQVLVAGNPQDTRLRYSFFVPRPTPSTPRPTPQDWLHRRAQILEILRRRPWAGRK

[3] = tested on: Aggrecanase-mediated aggrecan cleavage in human OA cartilage explants; assay: Human osteoarthritic cartilage explant efficacy study (BC3 western analysis); type: cell-based
Description: Human OA Cartilage Explant Culture: Discarded tissues from consented knee replacement patients were obtained from New England Baptist Hospital (Brookline, Mass.) in sterile phosphate buffered saline (PBS) after about 2-4 hrs post surgery. Cartilage slices were harvested from the knee specimens and washed several times in PBS. These cartilage slices were cut into appropriate pieces (6-8 mm) and rinsed in PBS and then in media and further cultured for additional days as cartilage explants. The medium consisted of Dulbecco's Modified Eagle's medium (DMEM, JRH Biosciences, Lenexa, Kans.), 50 μg/ml ascorbic acid (Wako, Osaka, Japan), 10 mM HEPES, pH 7.0 (Mediatech, Herndon, Va.), 2 mM L-glutamine (Mediatech), 100 U/ml antibiotic-antimycotic solution (Mediatech).
Test compounds: The test compounds are described in Examples 8OO, 8NNNNNNN, and 8WWWWWWW. Stock solutions of the compounds were prepared at 1 mg/ml in DMSO, aliquoted and stored at −20° C. Working solutions of the compounds were made in DMSO and added to the culture for efficacy studies.
Efficacy study: Cartilage explants were cultured for 2-3 days in DMEM medium in a 37° C. and 5% CO2 environment to equilibrate the tissue. Explants were weighed (˜250 mg) and placed in wells of a 24-well culture dish in 1 ml of medium and 3 replicates per treatment group. For the efficacy study, cartilage explants were cultured for 6 days in the presence or absence of various concentrations of the test compound. The media was replaced on day 3 and the experiment was terminated on day 6. Total aggrecan content of conditioned media was measured by a colorimetric assay with DMMB (Farndale, R W et al., Biochim Biophys Acta. 1986, 883, 173-177).
Western analysis: Aggrecan fragments in conditioned medium were analyzed by western analysis using neoepitope antibody, BC-3 designed to recognize the Aggrecanase-generated N-terminal interglobular neoepitope ^374ARGS. Equal cartilage weight equivalent conditioned media from each replicate well per treatment group was pooled and digested with Chondroitinase ABC (Sigma, St Louis, Mo.), Keratinase I (Seikagaku America, Falmouth, Mass.) and Keratinase II (Seikagaku America, Falmouth, Mass.) for 2 h at 37° C. Samples were concentrated by YM-10 centrifugal filter device (Millipore Corp., Bedford, Mass.), lyophilized and reconstituted with equal volume of water. Samples were separated under reducing conditions on 4-12% gradient Tris-glycine gels (Invitrogen, Carlsbad, Calif.). Proteins from the gels were transferred to nitrocellulose membranes. Immunoblots were probed using Mab BC-3 (Abcam, Cambridge, Mass.). Incubation with primary and alkaline-phosphatase-conjugated secondary goat anti-mouse IgG (Promega Corp., Madison, Wis.) was performed overnight at 4° C. and at room temperature for 1 h, respectively. The immunoblots were incubated with NBT/BCIP substrate (Promega Corp., Madison, Wis.) at room temperature to achieve optimum color development. The aggrecan fragments containing the ARGS neoepitope were quantitated by densitometry analysis and the percentage inhibition of aggrecan degradation by test compounds was determined.

IC50 (MMP-1): > 200000 nM
IC50 [1]: 44 nM
Ki ([2]; enzyme not given, column follows Agg1 IC50, read-out: Ki): 6 nM
IC50 ([2]; read-out: Agg1 IC50): < 30 nM
Structure (SMILES): CC(C)(Cc1ccc(F)cc1)NC(=O)[C@H](CCC(=O)O)NC(=O)c1ccc(-c2ccccc2)cc1 [Example 8OO, N^2-(1,1′-biphenyl-4-ylcarbonyl)-N^1-[2-(4-fluorophenyl)-1,1-dimethylethyl]-L-α-glutamine]
EC50 ([3]; 144 h, human OA cartilage explants, 6 days, BC3 analysis, read-out: EC50 (inhibition of aggrecanase generated aggrecan fragments)): ~0.15 µg/mL (≈ 0.315 µM)
inhibition at 0.02 µg/mL ([3]; Homo sapiens, 0.02 ug/ml, average of 15 donors, read-out: % inhibition (BC3 analysis)): 8.52%
inhibition at 0.04 µg/mL ([3]; Homo sapiens, 0.04 ug/ml, average of 15 donors, read-out: % inhibition (BC3 analysis)): 26.2%
inhibition at 0.08 µg/mL ([3]; Homo sapiens, 0.08 ug/ml, average of 15 donors, read-out: % inhibition (BC3 analysis)): 42.9%
inhibition at 0.15 µg/mL ([3]; Homo sapiens, 0.15 ug/ml, average of 15 donors, read-out: % inhibition (BC3 analysis)): 49%
inhibition at 0.3 µg/mL ([3]; Homo sapiens, 0.3 ug/ml, average of 15 donors, read-out: % inhibition (BC3 analysis)): 56.4%
inhibition at 0.6 µg/mL ([3]; Homo sapiens, 0.6 ug/ml, average of 15 donors, read-out: % inhibition (BC3 analysis)): 73.9%
inhibition at 1.25 µg/mL ([3]; Homo sapiens, 1.25 ug/ml, average of 15 donors, read-out: % inhibition (BC3 analysis)): 83.4%
inhibition at 2.5 µg/mL ([3]; Homo sapiens, 2.5 ug/ml, average of 15 donors): 101%
inhibition at 5 µg/mL ([3]; Homo sapiens, 5 ug/ml, average of 15 donors): 98.9%
inhibition at 10 µg/mL ([3]; Homo sapiens, 10 ug/ml, average of 15 donors): 102%
